Experimental data from patent US8594947B2, “Crystal structure of an angiotensin-converting enzyme (ACE) and uses thereof” (University of Bath, priority 2002, dated 2013).
Where two headings read alike, the source gives them in different places.

Key:
[1] = cited from earlier work
[2] = test system: tACE glycosylation; assay: Inhibition of tACE glycosylation in presence of tunicamycin (cellular ACE activity, Western blot); assay type: cell-based; conditions: CHO cells expressing tACE-wt, 5 μg/ml tunicamycin
Method: CHO cells expressing tACE-wt are grown to confluence in 6-well plates and induced overnight in 2% medium in the absence and presence of 5 μg/ml tunicamycin. Fresh medium is added and cells are grown in the absence and presence of 5 μg/ml tunicamycin. At 6, 8, 12, 16, 20 and 24 hours detergent-solubilised cell samples are collected. After separating the proteins on 10% SDS-PAGE they are immunodetected by Western blotting.
tACE-wt (SEQ ID NO: 1), tACEΔ36, tACEΔ36-g1, -g2, -g3, -g12, -g13, -g23, -g123 and -g1234 are immunodetected by Western blotting of cell lysates and harvested medium from transfected CHO cells. Proteins are separated on 10% SDS-PAGE and transferred to nitrocellulose membrane (Hybond-C, Amersham). The membrane is probed with a polyclonal rabbit anti-human tACE antibody. The membrane is developed using the ECL chemiluminescence kit (Amersham) and visualised on autoradiographic film, as per instructions.

[3] = biological target: T1, tACE (Homo sapiens, UniProt P12821); assay: Kinetic constants for tACE hydrolysis of hippuryl-L-histidyl-L-leucine (Hip-His-Leu); assay type: biochemical; conditions: cells expressing tACEΔ36NJ treated with the glucosidase I inhibitor
T1 construct: made in house; host or cells: CHO-K1 cells, stably transfected; soluble enzyme purified from the medium
Method: (§1) Soluble, recombinant tACE (wild-type […], ACEΔ36NJ (SEQ ID NO: 2) and ACE glycosylation mutants), is purified from conditioned media by affinity chromatography on a Sepharose-28-lisinopril affinity resin. The protein is quantitated by amino acid analysis and assayed for activity using the substrate hippuryl-L-histidyl-L-leucine , as described (Ehlers, MRE, Chen, Y—N, Riordan, JF (1991) Proc Natl Acad Sci USA 88, 1009-1013).
(§2) Assays are performed in 100 mM potassium phosphate pH 8.3 containing 300 mM NaCl. Initial velocities are calculated over a range of Hip-His-Leu concentrations (0.2-5.0 mM) under initial rate conditions and fit to the Michaelis-Menten equation. Km and Vmax values are determined by non-linear regression analysis.

[4] = test system: tACE; assay: as above; assay type: biochemical, human; conditions: hydrolysis of Hip-His-Leu
Method: as §1, §2

For `CCOC(=O)[C@H](CCc1ccccc1)N[C@@H](C)C(=O)N1CCC[C@H]1C(=O)O` [enalapril], the “Risk of hospitalization for heart failure” value ([1]; similar black patients) is listed as “no such effect” and the “Risk of hospitalization for heart failure” value ([1]; white patients with left ventricular function) is listed as “significant reduction”.

With tunicamycin the “Formation of mature, glycosylated tACE-wt (Western blot)” value [2] was “partially inhibits” and the “Cellular tACE-wt activity in treated versus untreated cells” value ([2]; data not shown) was “approximately three-fold lower”.

In the case of `CCCCN1C[C@H](O)[C@@H](O)[C@H](O)[C@H]1CO` [NB-DNJ, N-butyldeoxynojirimycin], the “Effect of treating the expressing cells on kinetic properties of the expressed enzymes” value [3] is reported as “do not alter the kinetic properties”.

B1: tACE-wt: wild-type human testis ACE (SEQ ID NO: 1) retaining its 36-residue N-terminus, transmembrane region and juxtamembrane stalk, expressed in CHO cells (protein, listed as Homo sapiens)
chain: SQQVTVTHGTSSQATTSSQTTTHQATAHQTSAQSPNLVTDEAEASKFVEEYDRTSQVVWNEYAEANWNYNTNITTETSKILLQKNMQIANHTLKYGTQARKFDVNQLQNTTIKRIIKKVQDLERAALPAQELEEYNKILLDMETTYSVATVCHPNGSCLQLEPDLTNVMATSRKYEDLLWAWEGWRDKAGRAILQFYPKYVELINQAARLNGYVDAGDSWRSMYETPSLEQDLERLFQELQPLYLNLHAYVRRALHRHYGAQHINLEGPIPAHLLGNMWAQTWSNIYDLVVPFPSAPSMDTTEAMLKQGWTPRRMFKEADDFFTSLGLLPVPPEFWNKSMLEKPTDGREVVCHASAWDFYNGKDFRIKQCTTVNLEDLVVAHHEMGHIQYFMQYKDLPVALREGANPGFHEAIGDVLALSVSTPKHLHSLNLLSSEGGSDEHDINFLMKMALDKIAFIPFSYLVDQWRWRVFDGSITKENYNQEWWSLRLKYQGLCPPVPRTQGDFDPGAKFHIPSSVPYIRYFVSFIIQFQFHEALCQAAGHTGPLHKCDIYQSKEAGQRLATAMKLGFSRPWPEAMQLITGQPNMSASAMLSYFKPLLDWLRTENELHGEKLGWPQYNWTPNSARSEGPLPDSGRVSFLGLDLDAQQARVGQWLLLFLGIALLVATLGLSQRLFSIRHRSLHRHSHGPQFGSEVELRHS
Work on B1 yielded a Km ([4]; 100 mM potassium phosphate pH 8.3, 300 mM NaCl) of 2700 µM and a kcat ([4]; calculated molecular mass of 100 kDa) of 193 s⁻¹.
